We go through 19 molecules from article PMC9516332 (Frontiers in Oncology, 2022).

Assay in all cases: Kinase panel profiling at 1 µmol/L (MSA or IMAP), percentage inhibition
Type in all cases: biochemical

The target of experiment [1] is panel of 255 wild-type kinases (Homo sapiens, UniProt Q8TDX7). Conditions: read-out: %-inhibition, NEK7.
For experiment [2], the target named is T1, panel of 255 wild-type kinases (Homo sapiens, UniProt Q96PY6).
T1 sequence (Q96PY6 1-1258): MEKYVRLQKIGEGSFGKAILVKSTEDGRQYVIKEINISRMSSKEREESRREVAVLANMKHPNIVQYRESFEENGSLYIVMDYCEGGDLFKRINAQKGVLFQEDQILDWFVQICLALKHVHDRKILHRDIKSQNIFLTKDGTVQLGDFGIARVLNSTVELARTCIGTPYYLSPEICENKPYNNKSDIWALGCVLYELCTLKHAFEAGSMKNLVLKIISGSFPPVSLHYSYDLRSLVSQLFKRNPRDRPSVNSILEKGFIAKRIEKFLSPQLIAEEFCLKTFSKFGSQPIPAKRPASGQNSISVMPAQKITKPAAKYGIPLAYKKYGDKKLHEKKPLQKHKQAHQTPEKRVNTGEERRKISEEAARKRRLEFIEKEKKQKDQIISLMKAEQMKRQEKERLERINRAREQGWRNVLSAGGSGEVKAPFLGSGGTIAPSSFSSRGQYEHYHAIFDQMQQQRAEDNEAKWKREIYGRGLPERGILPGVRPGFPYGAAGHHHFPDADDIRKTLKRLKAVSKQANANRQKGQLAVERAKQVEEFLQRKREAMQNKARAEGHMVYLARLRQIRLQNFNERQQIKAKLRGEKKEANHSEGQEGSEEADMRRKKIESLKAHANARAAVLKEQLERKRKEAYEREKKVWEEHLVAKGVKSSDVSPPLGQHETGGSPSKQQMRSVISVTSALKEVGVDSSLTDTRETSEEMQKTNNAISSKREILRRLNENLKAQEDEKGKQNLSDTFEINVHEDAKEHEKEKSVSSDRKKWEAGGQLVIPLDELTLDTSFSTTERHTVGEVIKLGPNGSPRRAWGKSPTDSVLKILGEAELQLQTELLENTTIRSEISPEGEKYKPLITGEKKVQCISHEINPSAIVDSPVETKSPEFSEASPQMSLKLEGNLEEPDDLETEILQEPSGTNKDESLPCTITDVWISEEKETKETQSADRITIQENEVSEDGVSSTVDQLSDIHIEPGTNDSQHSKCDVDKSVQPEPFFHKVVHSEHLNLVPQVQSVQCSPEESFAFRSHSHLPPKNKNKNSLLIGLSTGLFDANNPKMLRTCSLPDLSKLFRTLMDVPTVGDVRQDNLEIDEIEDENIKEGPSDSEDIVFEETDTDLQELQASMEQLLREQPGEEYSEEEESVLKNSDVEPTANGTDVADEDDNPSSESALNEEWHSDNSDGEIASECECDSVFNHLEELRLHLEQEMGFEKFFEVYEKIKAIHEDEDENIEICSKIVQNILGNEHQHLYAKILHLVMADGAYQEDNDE
The following applies: read-out: %-inhibition, NEK1.

Experiment [3] deals with panel of 255 wild-type kinases (Homo sapiens, UniProt Q9P1W9). Conditions: read-out: %-inhibition at 1 µmol/L, PIM2.
Experiment [4] concerns the target panel of 255 wild-type kinases (Homo sapiens, UniProt O43683). The following applies: read-out: %-inhibition BUB1/BUB3.
Experiment [5] deals with T2, panel of 255 wild-type kinases (Homo sapiens, UniProt O00418).
T2 sequence (O00418 1-725): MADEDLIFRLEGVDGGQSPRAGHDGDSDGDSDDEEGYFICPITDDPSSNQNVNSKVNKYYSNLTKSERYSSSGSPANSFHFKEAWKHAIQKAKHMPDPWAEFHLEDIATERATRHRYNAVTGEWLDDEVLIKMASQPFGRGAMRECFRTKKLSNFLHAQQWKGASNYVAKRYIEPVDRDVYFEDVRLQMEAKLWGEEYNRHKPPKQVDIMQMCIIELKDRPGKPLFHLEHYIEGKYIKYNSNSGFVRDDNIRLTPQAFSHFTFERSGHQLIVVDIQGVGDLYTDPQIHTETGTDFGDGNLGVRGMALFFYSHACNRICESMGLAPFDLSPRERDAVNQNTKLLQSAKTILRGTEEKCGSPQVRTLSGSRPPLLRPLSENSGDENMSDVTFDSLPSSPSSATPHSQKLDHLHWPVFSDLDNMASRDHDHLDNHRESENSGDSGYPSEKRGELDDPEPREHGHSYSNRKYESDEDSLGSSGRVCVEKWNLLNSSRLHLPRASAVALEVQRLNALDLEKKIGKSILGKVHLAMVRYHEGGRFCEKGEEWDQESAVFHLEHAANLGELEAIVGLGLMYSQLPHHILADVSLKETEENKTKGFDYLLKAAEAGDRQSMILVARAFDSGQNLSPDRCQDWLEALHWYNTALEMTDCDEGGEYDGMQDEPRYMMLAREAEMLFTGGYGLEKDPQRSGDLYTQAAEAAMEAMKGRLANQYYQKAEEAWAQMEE
Conditions: read-out: %-inhibition at 1 µmol/L, EEF2K.

Where [6] appears, read: NEK7, 1 µmol/L single concentration.
Where [7] appears, read: NEK1, 1 µmol/L single concentration.
Setting [8] is: kinase PIM2, 1 µmol/L single concentration.
Setting [9] is: BUB1/BUB3 kinase assay, 1 µmol/L single concentration.
The mark [10] stands for this setting: kinase EEF2K, 1 µmol/L single concentration.

Read-outs that look alike come from different tables or passages of the source.

Take `Cc1nc(NC(=O)N2CCC[C@H]2C(N)=O)sc1-c1ccnc(C(C)(C)C(F)(F)F)c1` [alpelisib]: the inhibition at 1 µM was 0.399% in experiment [1] (setting [6]); -0.542% in experiment [2] (setting [7]); -6.4% in experiment [3] (setting [8]); -4.62% in experiment [4] (setting [9]); 2% in experiment [5] (setting [10]).

For `Cn1cc(-c2cc3c(N4CCN(c5ncc([C@@](C)(N)c6ccc(F)cc6)cn5)CC4)ncnn3c2)cn1` [avapritinib], the inhibition at 1 µM is -11% in experiment [1] (setting [6]); 56% in experiment [2] (setting [7]); -2.22% in experiment [3] (setting [8]); 4% in experiment [4] (setting [9]); -1.21% in experiment [5] (setting [10]).

For the molecule `Cn1cnc2c(F)c(Nc3ccc(Br)cc3F)c(C(=O)NOCCO)cc21` [binimetinib], the inhibition at 1 µM in experiment [1] (setting [6]) was 2%; in experiment [2] (setting [7]), -1.21%; in experiment [3] (setting [8]) it was -6.4%; in experiment [4] (setting [9]), -3.43%; in experiment [5] (setting [10]) it was -6%.

For `CNC(=O)c1ccc(-c2cnc3ncc(Cc4ccc5ncccc5c4)n3n2)cc1F` [capmatinib], the inhibition at 1 µM is -9% in experiment [1]; -8% in experiment [2]; -4.65% in experiment [3]; 1.44% in experiment [4]; -0.629% in experiment [5].

For `COc1cc2ncnc(Nc3ccc(F)c(Cl)c3)c2cc1NC(=O)/C=C/CN1CCCCC1` [dacomitinib], the inhibition at 1 µM in experiment [1] (setting [6]) is -4.37%; in experiment [2] (setting [7]) it was 0.762%; in experiment [3] (setting [8]), -3%; in experiment [4] (setting [9]), 22%; in experiment [5] (setting [10]), 0%.

Consider `C[C@H](Nc1ncnc2nc[nH]c12)c1cc2cccc(Cl)c2c(=O)n1-c1ccccc1` [duvelisib], for which the inhibition at 1 µM in experiment [1] (setting [6]) is -0.791%; in experiment [2] (setting [7]) it was -3.74%; in experiment [3] (setting [8]), -6.49%; in experiment [4] (setting [9]) it was -3.41%; in experiment [5] (setting [10]), 0.762%.

On to `COC(=O)N[C@@H](C)CNc1nccc(-c2cn(C(C)C)nc2-c2cc(Cl)cc(NS(C)(=O)=O)c2F)n1` [encorafenib], for which the inhibition at 1 µM is 5% in experiment [1] (setting [6]); 2.84% in experiment [2] (setting [7]); -1.43% in experiment [3] (setting [8]); 6% in experiment [4] (setting [9]); 1% in experiment [5] (setting [10]).

With `CN1CCN(c2ccc(C(=O)Nc3n[nH]c4ccc(Cc5cc(F)cc(F)c5)cc34)c(NC3CCOCC3)c2)CC1` [entrectinib], the inhibition at 1 µM was -1.81% in experiment [1] (setting [6]); -3.78% in experiment [2] (setting [7]); -7.56% in experiment [3] (setting [8]); -5.38% in experiment [4] (setting [9]); 3.25% in experiment [5] (setting [10]).

As to `CCc1nc(C(N)=O)c(Nc2ccc(N3CCC(N4CCN(C)CC4)CC3)c(OC)c2)nc1NC1CCOCC1` [gilteritinib], the inhibition at 1 µM was -2% in experiment [1] (setting [6]); 5.59% in experiment [2] (setting [7]); -1.37% in experiment [3] (setting [8]); 54% in experiment [4] (setting [9]); -2.72% in experiment [5] (setting [10]).

`CCN1CCN(c2ccc(Nc3cc(N(C)C(=O)Nc4c(Cl)c(OC)cc(OC)c4Cl)ncn3)cc2)CC1` [infigratinib]: the inhibition at 1 µM in experiment [1] (setting [6]) is -3.65%; in experiment [2] (setting [7]), -5%; in experiment [3] (setting [8]) it was -7%; in experiment [4] (setting [9]), -1.66%; in experiment [5] (setting [10]), 2.54%.

For `O=C(Nc1cnn2ccc(N3CCC[C@@H]3c3cc(F)ccc3F)nc12)N1CC[C@H](O)C1` [larotrectinib], the inhibition at 1 µM is 0.263% in experiment [1] (setting [6]); -2.72% in experiment [2] (setting [7]); -6.57% in experiment [3] (setting [8]); -6% in experiment [4] (setting [9]); -2% in experiment [5] (setting [10]).

Regarding `C[C@H]1Oc2cc(cnc2N)-c2c(nn(C)c2C#N)CN(C)C(=O)c2ccc(F)cc21` [lorlatinib], the inhibition at 1 µM in experiment [1] (setting [6]) is 1.44%; in experiment [2] (setting [7]), 0.741%; in experiment [3] (setting [8]), -3.36%; in experiment [4] (setting [9]), -5%; in experiment [5] (setting [10]), -1.73%.

Regarding `CCN1C(=O)N(c2c(F)c(OC)cc(OC)c2F)Cc2cnc3[nH]c(CN4CCOCC4)cc3c21` [pemigatinib], the inhibition at 1 µM in experiment [1] (setting [6]) was 3%; in experiment [2] (setting [7]) it was 10%; in experiment [3] (setting [8]) it was -6%; in experiment [4] (setting [9]), -3.37%; in experiment [5] (setting [10]) it was -3.26%.

As for `FC(F)(F)c1ccc(CNc2ccc(Cc3c[nH]c4ncc(Cl)cc34)cn2)cn1` [pexidartinib], the inhibition at 1 µM in experiment [1] (setting [6]) was -2.52%; in experiment [2] (setting [7]) it was -1.38%; in experiment [3] (setting [8]), -2.72%; in experiment [4] (setting [9]), 5.7%; in experiment [5] (setting [10]), -2.25%.

Take `CO[C@]1(C(=O)N[C@@H](C)c2ccc(-n3cc(F)cn3)nc2)CC[C@H](c2nc(C)cc(Nc3cc(C)[nH]n3)n2)CC1` [pralsetinib]: the inhibition at 1 µM was -3% in experiment [1] (setting [6]); -5% in experiment [2] (setting [7]); -4% in experiment [3] (setting [8]); -0.908% in experiment [4] (setting [9]); 1.23% in experiment [5] (setting [10]).

Turning to `CCn1c(=O)c(-c2cc(NC(=O)Nc3ccccc3)c(F)cc2Br)cc2cnc(NC)cc21` [ripretinib], the inhibition at 1 µM in experiment [1] (setting [6]) is -7%; in experiment [2] (setting [7]), -1.3%; in experiment [3] (setting [8]) it was -3%; in experiment [4] (setting [9]), 2.76%; in experiment [5] (setting [10]), -2%.

Consider `COc1ccc(CN2C3CC2CN(c2ccc(-c4cc(OCC(C)(C)O)cn5ncc(C#N)c45)cn2)C3)cn1` [selpercatinib], for which the inhibition at 1 µM in experiment [1] (setting [6]) was 1%; in experiment [2] (setting [7]) it was -0.568%; in experiment [3] (setting [8]), -6%; in experiment [4] (setting [9]), 19%; in experiment [5] (setting [10]) it was -1.54%.

As for `Cn1cnc2c(F)c(Nc3ccc(Br)cc3Cl)c(C(=O)NOCCO)cc21` [selumetinib], the inhibition at 1 µM is -0.844% in experiment [1] (setting [6]); -5% in experiment [2] (setting [7]); -3.45% in experiment [3] (setting [8]); -4% in experiment [4] (setting [9]); 2.4% in experiment [5] (setting [10]).

On to `Cc1cc(Nc2ncnc3ccc(NC4=NC(C)(C)CO4)cc23)ccc1Oc1ccn2ncnc2c1` [tucatinib], for which the inhibition at 1 µM in experiment [1] (setting [6]) is -5.58%; in experiment [2] (setting [7]), 1.77%; in experiment [3] (setting [8]), -3.72%; in experiment [4] (setting [9]), 0.842%; in experiment [5] (setting [10]), -2.79%.
